Laboratory results published in publication PMC10671052, “Naphthyl-Substituted Indole and Pyrrole Carboxylic Acids as Effective Antibiotic Potentiators—Inhibitors of Bacterial Cystathionine γ-Lyase” (International Journal of Molecular Sciences, 2023).
Where two headings read alike, the source gives them in different places.

How the values were obtained:
[1] = target: S. aureus cystathionine-γ-lyase (bCSE) (Staphylococcus aureus, UniProt A0A0H3K724); assay: IC50 assay: inhibition of H2S production by purified bCSE, WSP5 fluorescent probe; format: biochemical
Chain of S. aureus cystathionine-γ-lyase (bCSE) (A0A0H3K724 entry or part of it): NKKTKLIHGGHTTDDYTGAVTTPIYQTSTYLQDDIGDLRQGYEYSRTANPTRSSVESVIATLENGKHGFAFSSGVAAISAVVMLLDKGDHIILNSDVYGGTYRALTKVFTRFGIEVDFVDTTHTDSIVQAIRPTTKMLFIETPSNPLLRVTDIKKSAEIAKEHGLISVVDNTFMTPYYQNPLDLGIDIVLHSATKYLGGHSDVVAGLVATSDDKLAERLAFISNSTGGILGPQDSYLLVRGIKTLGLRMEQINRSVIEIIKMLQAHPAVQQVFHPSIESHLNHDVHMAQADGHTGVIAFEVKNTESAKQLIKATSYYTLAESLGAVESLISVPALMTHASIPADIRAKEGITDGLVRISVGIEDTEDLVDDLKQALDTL
Method: (§1) Fluorescence spectrophotometry-based inhibitory activity toward purified bCSE and hCSE was measured in a 96-well nonbinding black plate (Greiner, Kremsmunster, Austria) at 100 μL of the reaction mixture per well. bCSE and hCSE (0.02 μM) were preincubated in a thermoshaker (Biosan, Riga, Latvia) (30 °C, 300 rpm) for 40 min in 50 mM sodium phosphate buffer (pH 8.0), supplemented with 10 μM pyridoxal 5′-phosphate (Sigma-Aldrich, St. Louis, MO, USA), 0.1% of Tween 20 (Sigma-Aldrich, St. Louis, MO, USA), and 1.2 μM Washington State Probe-5 (Cayman Chemical, Ann Arbor, MI, USA) (excitation: 500 nm, emission: 530 nm) at different concentrations of a tested inhibitor. The reaction was initiated by the addition of 100 μM L-cysteine (TCI, Chennai, Tamil Nadu, India) in 50 mM sodium phosphate buffer pH 8.0 to the reaction mixture, and the enzymatic activity was monitored for 12 h using a CLARIOstar Plus instrument (BMG LABTECH GmbH, Ortenberg, Germany). The 100 µM L-cysteine concentration used in the experiments corresponds to the maximal reported intracellular concentration in bacteria. The data were normalized to the positive and negative controls, and IC50 values were obtained by fitting to a four-parameter sigmoidal curve (inhibitor vs. response, variable slope model) in GraphPad Prism 8 software (GraphPad by Dotmatics, Boston, MA, USA). Each experiment was conducted with 2–3 technical replicates. IC50 values were means of at least two independent experiments.
(§2) For the production of S. aureus cystathionine-γ-lyase (bCSE) and of human cystathionine-γ-lyase (hCSE), plasmids pSUMO:saCSE (Addgene # 54336) and pNIC28-Bsa4 (Addgene # 42365) were employed. Cultivation of a competent E. coli cell strain (Thermo Fisher Scientific, Waltham, MA, USA), transformed with a target plasmid, was carried out on a selective solid medium with kanamycin. Bacterial cells harboring the plasmid vector were cultured at 37 °C and 180 rpm until OD600 = 0.65. Then, isopropyl β-D1-thiogalactopyranoside (IPTG) was added to a final concentration of 1 mM. To obtain bCSE, the cells were cultured for 3.5 h at 37 °C; to obtain hCSE, the cells were cultured for 18–20 h at 25 °C. After centrifugation, cells were resuspended in a buffer composed of 50 mM Tris–HCl, at a pH of 8.0, and 300 mM sodium chloride. After that, the cells were lysed by ultrasonication, with a pulse duration of 15 s and an interval between pulses of 15 s. The amplitude of the ultrasonic vibrations was 50% of the maximum. After lysis, samples were centrifuged for 15 min (20,000× g at 4 ℃). The pH of the supernatant obtained after the centrifugation was adjusted to 7.5 by the addition of a 1 M solution of Tris–OH. Then, the test sample was subjected to filtration through a polyethersulfone membrane with a pore diameter of 0.22 μm.

[2] = target: T1, human cystathionine-γ-lyase (hCSE) (Homo sapiens, UniProt P32929); assay: IC50 assay: inhibition of H2S production by purified hCSE, WSP5 fluorescent probe; format: biochemical; conditions: for IC50: purified hCSE 0.02 μM, 100 μM L-cysteine, WSP5 probe, mean ± SD
T1 construct: His6-TEV (N, cleaved yes); host or cells: E. coli
T1 sequence (P32929 whole entry): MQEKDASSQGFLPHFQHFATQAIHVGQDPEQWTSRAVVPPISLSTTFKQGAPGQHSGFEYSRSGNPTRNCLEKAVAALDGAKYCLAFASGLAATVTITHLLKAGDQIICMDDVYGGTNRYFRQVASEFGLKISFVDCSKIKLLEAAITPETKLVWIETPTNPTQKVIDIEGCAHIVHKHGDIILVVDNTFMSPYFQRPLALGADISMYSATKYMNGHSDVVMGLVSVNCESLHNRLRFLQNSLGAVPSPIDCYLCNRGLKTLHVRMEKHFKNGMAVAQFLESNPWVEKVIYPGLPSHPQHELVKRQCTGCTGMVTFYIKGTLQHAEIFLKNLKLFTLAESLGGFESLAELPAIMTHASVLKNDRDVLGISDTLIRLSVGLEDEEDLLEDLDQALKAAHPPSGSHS
Method: as §1, §2

[3] = HEK293 cytotoxicity assay (Alamar Blue); format: cell-based; conditions: human, HEK293, 72 h
Method: The HEK 293 cell line was obtained from the European Collection of Authenticated Cell Cultures (ECACC, cat. # 85120602, Salisbury, UK). The cells were grown in a monolayer culture in Dulbecco’s Modified Eagle’s Medium (DMEM) (PanEco, Moscow, Russia), supplemented with 2 mM L-glutamine, 1% of a penicillin/streptomycin solution (Capricorn Scientific, Ebsdorfergrund, Germany), and 10% of heat inactivated fetal bovine serum (HyClone, Cytiva, Marlborough, MA, USA) in a humidified atmosphere containing 5% of CO2 at 37 °C (Binder, Germany). For the assay, HEK 293 cells were seeded in a 96-well plate (Corning, NY, USA) in 100 μL of the complete culture medium, at a final density of 2 × 10^3 cells/well, and were cultured for 24 h for proper attachment. Subsequently, the medium was removed, and the cells were exposed to a tested inhibitor at different concentrations for 72 h in 100 μL of the fresh complete culture medium. The sensitivity of the cells to the compounds was detected using the vital dye Alamar Blue (Invitrogen, San Diego, CA, USA). The Alamar Blue assay was performed according to the procedure described by O’Brien et al.. After incubation with the tested bCSE inhibitors, 10 μL of the Alamar Blue reagent was added into each well, the cell culture plates were returned to the humidified incubator, and the fluorescence was read after 3 h. The plates were exposed to an excitation light of 545 nm wavelength, and emission at 600 nm was measured on the CLARIOstar Plus (BMG LABTECH GmbH, Ortenberg, Germany). To determine half-maximal cytotoxic concentration (CC50), a four-parameter sigmoidal curve model (GraphPad Prism 8 software) was fitted to the measurement data.

[4] = system: P. aeruginosa GIMC5016:PA1840/36/2015; assay: Susceptibility of isolate to main antimicrobial agents; format: cell-based
[5] = system: P. aeruginosa GIMC5016:PA1840/36/2015; assay: MIC of antibiotics alone and with potentiators, clinical isolate; conditions: P. aeruginosa GIMC5016:PA1840/36/2015, no potentiator
Method: Overnight (ON) culture of a specific strain was grown in the liquid Luria–Bertani nutrient medium (LB broth, BD Difco) for 18 h at 37 °C, with agitation at 180 rpm using an Innova 44R orbital shaker (Eppendorf, Hamburg, Germany). After a certain period, 50 µL of the ON culture was transferred into 5 mL of the LB medium and grown for 3 h at 37 °C with agitation. Growth in the liquid medium was assessed by means of turbidity of the suspension, measured using a Densi-La-Meter II densitometer (Erba Lachema s.r.o., Brno, Czech Republic). Then, the bacterial suspension was diluted to the concentration 10^6 cells/mL with sterile LB and used as a seed culture [38, 39].
For the assessment of MICs, 96-well microtiter plates were utilized at 200 µL of a medium per well. Each well was filled with 100 µL of the seed culture. After that, 10 µL of a solution of each tested synthetic compound (potentiators) was added into each experimental well. Finally, 90 µL of twofold serial dilutions of an antibiotic in a sterile LB was added into individual wells.
As a positive control, we set up wells with 100 µL of the bacterial culture and 100 µL of the sterile LB medium. […] Negative-control wells contained 200 µL of the sterile medium. The plates were incubated in a thermostat for 18–20 h at 37 °C. The bacterial growth was assessed as optical density at 600 nm on a CLARIOstar microplate reader (BMG LABTECH GmbH, Ortenberg, Germany)).

in vitro = assay: in vitro
Method: A test compound (final concentration 10 μM) was incubated at 37 °C in SGF, SIF, or human plasma for 2, 2, or 4 h, respectively. 100 μL aliquots were taken from each sample and 300 μL of acetonitrile containing an internal standard was added. […] All compounds were tested in triplicate. The percentage of a remaining compound after incubation was determined based on the chromatographic peak area of the sample after incubation and that of time zero (freshly prepared and injected) sample.

[6] = IC50 biochemical assay bCSE, purified bCSE 0.02 μM, 100 μM L-cysteine, WSP5 probe, mean ± SD
[7] = read-out: IC50 biochemical assay hCSE
[8] = IC50 (uM), bCSE enzymatic IC50, rounded, repeated in Table S13
[9] = IC50 (uM), bCSE enzymatic IC50, rounded, repeated in Table S14
[10] = IC50 (uM), bCSE enzymatic IC50, rounded, repeated in Table S15

C#CC[C@H](N)C(=O)O (racemic) [PAG, DL-propargylglycine, reference compound]
Hill slope of dose-response curve toward bCSE [1]: approximately two | IC50 [1, 6]: 24.3 ± 0.7 µM | Hill slope of dose-response curve toward hCSE [2]: ~1.0 | IC50 [2, 7]: 0.17 ± 0.02 µM

O=C(O)c1cn(Cc2cccc3ccccc23)c2ccccc12 [Compound 1a]
activity toward bCSE (in words) [1]: did not show noticeable activity | IC50 [1, 6]: > 500 µM | activity toward hCSE (in words) [2]: did not show noticeable activity | IC50 ([2]; IC50 biochemical assay hCSE): > 500 µM | CC50 at 72 h [3]: 432 ± 37.5 µM

O=C(O)c1cn(Cc2ccc3ccccc3c2)c2ccccc12 [Compound 1b]
activity toward bCSE (in words) [1]: did not show noticeable activity | IC50 [1, 8]: > 500 µM | IC50 [1, 9]: > 500 µM | IC50 [1, 6]: > 500 µM | activity toward hCSE (in words) [2]: did not show noticeable activity | IC50 ([2]; IC50 biochemical assay hCSE): > 500 µM | CC50 at 72 h [3]: 423 ± 71.8 µM

O=C(O)c1cc2ccccc2n1Cc1ccc2ccccc2c1 [Compound 2b]
IC50 [1, 8]: 71 µM | IC50 [1, 9]: 71 µM | IC50 [1, 10]: 71 µM | IC50 [1, 6]: 71.1 ± 4.2 µM | IC50 [2, 7]: 285 ± 14.6 µM | CC50 at 72 h ([3]; HEK293 cells): 368 ± 32.8 µM

O=C(O)c1ccc2ccn(Cc3cccc4ccccc34)c2c1 [Compound 3a]
IC50 [1, 8]: 79 µM | IC50 [1, 9]: 79 µM | IC50 [1, 10]: 79 µM | IC50 [1, 6]: 79.3 ± 5.9 µM | IC50 [2, 7]: 472 ± 37.3 µM | CC50 at 72 h ([3]; HEK293 cells): 452 ± 21.5 µM

O=C(O)c1ccc2ccn(Cc3ccc4ccccc4c3)c2c1 [Compound 3b]
IC50 [1, 9]: 141 µM | IC50 [1, 10]: 141 µM | IC50 [1, 6]: 148 ± 46.4 µM | IC50 [2, 7]: > 500 µM | CC50 at 72 h ([3]; HEK293 cells): 528 ± 47.1 µM

O=C(O)c1ccc2c(ccn2Cc2ccc3ccccc3c2)c1 [Compound 4b]
IC50 [1, 8]: 110 µM | IC50 [1, 9]: 110 µM | IC50 [1, 10]: 110 µM | IC50 [1, 6]: 110 ± 11.7 µM | IC50 [2, 7]: > 500 µM | CC50 at 72 h ([3]; HEK293 cells): 217 ± 93.2 µM

O=C(O)c1cccn1Cc1cccc2ccccc12 [Compound 5a]
IC50 [1, 8]: 289 µM | IC50 [1, 9]: 289 µM | IC50 [1, 10]: 289 µM | IC50 [1, 6]: 289 ± 30.4 µM | IC50 [2, 7]: > 500 µM | CC50 at 72 h ([3]; HEK293 cells): 460 ± 51.1 µM

COc1cccc2c1C(=O)c1c(O)c3c(c(O)c1C2=O)C[C@@](O)(C(=O)CO)C[C@@H]3O[C@H]1C[C@H](N)[C@H](O)[C@H](C)O1 [Doxorubicin, reference compound]
CC50 at 72 h ([3]; HEK293 cells): 1.3 ± 0.71 µM

CNC(C)C1CCC(N)C(OC2C(N)CC(N)C(OC3OCC(C)(O)C(NC)C3O)C2O)O1 (centres unmarked) [Gentamicin, gentamicin]
susceptibility of isolate (Sensitive to / Resistant to) [4]: Resistant to | MIC of antibiotic alone [5]: > 512 µg/mL

COc1ccc2[nH]c([S+]([O-])Cc3ncc(C)c(OC)c3C)nc2c1 (centres unmarked) [Omeprazole, reference compound]
Stability in SIF, % Remaining at 2 h (in vitro; simulated gi fluid, 2 h, 10 μM): 90.5% | remaining at 2 h, 10 μM (in vitro; simulated gi fluid, Stability in SGF): < 0.1% | remaining at 2 h, 10 μM (in vitro; simulated gi fluid, Stability in SIF): 90.5 ± 10%

CC(C)[N+](C)(CCOC(=O)C1c2ccccc2Oc2ccccc21)C(C)C [Propantheline, propantheline bromide, reference compound]
Stability in human plasma, % Remaining at 4 h (in vitro; 4 h, 10 μM): 0.2% | remaining at 4 h, 10 μM (in vitro; human, plasma, Stability in human plasma, % Remaining at 4 h): 0.21 ± 0.04%

NCC[C@H](O)C(=O)N[C@@H]1C[C@H](N)[C@@H](O[C@H]2O[C@H](CN)[C@@H](O)[C@H](O)[C@H]2O)[C@H](O)[C@H]1O[C@H]1O[C@H](CO)[C@@H](O)[C@H](N)[C@H]1O [amikacin]
susceptibility of isolate (Sensitive to / Resistant to) [4]: Resistant to

Cc1nnc(SCC2=C(C(=O)O)N3C(=O)[C@@H](NC(=O)Cn4cnnn4)[C@H]3SC2)s1 [cefazolin]
susceptibility of isolate (Sensitive to / Resistant to) [4]: Resistant to

CO/N=C(\C(=O)N[C@@H]1C(=O)N2C(C(=O)O)=C(COC(C)=O)CS[C@H]12)c1csc(N)n1 [cefotaxime]
susceptibility of isolate (Sensitive to / Resistant to) [4]: Resistant to

CC(C)(O/N=C(\C(=O)N[C@@H]1C(=O)N2C(C(=O)[O-])=C(C[n+]3ccccc3)CS[C@H]12)c1csc(N)n1)C(=O)O [ceftazidime]
susceptibility of isolate (Sensitive to / Resistant to) [4]: Resistant to

CO/N=C(\C(=O)N[C@@H]1C(=O)N2C(C(=O)O)=C(CSc3nc(=O)c(=O)[nH]n3C)CS[C@H]12)c1csc(N)n1 [ceftriaxone]
susceptibility of isolate (Sensitive to / Resistant to) [4]: Resistant to

O=C(O)c1cn(C2CC2)c2cc(N3CCNCC3)c(F)cc2c1=O [ciprofloxacin]
susceptibility of isolate (Sensitive to / Resistant to) [4]: Resistant to

C[C@H]1COc2c(N3CCN(C)CC3)c(F)cc3c(=O)c(C(=O)O)cn1c23 [levofloxacin]
susceptibility of isolate (Sensitive to / Resistant to) [4]: Resistant to

CCN1CCN(C(=O)N[C@@H](C(=O)N[C@@H]2C(=O)N3[C@@H]2SC(C)(C)[C@@H]3C(=O)O)c2ccccc2)C(=O)C1=O [piperacillin]
susceptibility of isolate (Sensitive to / Resistant to) [4]: Resistant to

NC[C@H]1O[C@H](O[C@H]2[C@H](O)[C@@H](O[C@H]3O[C@H](CO)[C@@H](O)[C@H](N)[C@H]3O)[C@H](N)C[C@@H]2N)[C@H](N)C[C@@H]1O [tobramycin]
susceptibility of isolate (Sensitive to / Resistant to) [4]: Resistant to
